Tests used:
AKT1 = assay: Effect on AKT1 mRNA level in CEM cells; assay type: cell-based; details: CEM cells (FIG. 4)
Source text: (§1) Along with brain-derived neurotrophic factor (“BDNF”), protein kinase B (“AKT”), and mitogen-activated protein kinase 1 (“MAPK1”) (i.e., ERK1/2) genes are known to critically regulate cell survival and growth of neurons during development and the survival and function of adult neurons, as well as modulate synaptic transmission and plasticity. This example compares activities of natural curcumin and curcumin analog (1E,4E)-1,5-bis(4-hydroxy-3-methoxyphenyl)penta-1,4-dien-3-one on AKT, MAPK1 and […]. The analog was predicted to be more biologically soluble, absorbable, and more resistant to degradation than the natural curcumin. It has already been shown that natural curcumin increases the expression of BDNF in the hippocampus of rats. It was believed that, compared to natural curcumin, the analog would result in greater increase in the activities of these three neuroprotective genes as proof-of-principle of neuroprotection from latent HIV brain disease. The analysis was conducted on CEM cell lines, which are cells that are susceptible to HIV infection.

[1] = Lipophilicity (octanol-water partition coefficient); assay type: physicochemical
Source text: As used herein, lipophilicity refers to the affinity of a compound for a lipophilic environment. By one approach, lipophilicity can be determined using an octanol-water partition coefficient (Kow), which represents the ratio of the solubility of a compound in octanol (a non-polar solvent) to its solubility in water (a polar solvent). The higher the Kow, the more non-polar the compound. Log Kow values are generally inversely related to aqueous solubility and directly proportional to molecular weight. For purposes herein, lipophilicity values range between 0 to 10 and a value of at least 2.5 indicates good lipophilicity. A log Kow value less than 0 is considered hydrophilic.

MAPK1 = assay: Effect on MAPK1 mRNA level in CEM cells; assay type: cell-based; details: CEM cells (FIG. 4)
Source text: as §1

BDNF = assay: Effect on BDNF mRNA level in CEM cells; assay type: cell-based; details: CEM cells (FIG. 4)
Source text: as §1

[2] = test system: vesicular stomatitus virus glycoprotein (VSVG) pseudotyped HIV-1 pNL 4-3 virus expressing luciferase (VSVG-HIV-1 Luc)
[3] = test system: vesicular stomatitus virus glycoprotein (VSVG) pseudotyped HIV-1 pNL 4-3 virus expressing luciferase (VSVG-HIV-1 Luc); assay: microbe, parasite or virus in culture; details: Human immunodeficiency virus 1, T-cell, 48 h, read-out: anti-HIV activity IC50

SMILES	AKT1 mRNA level (AKT1)	lipophilicity [1]	MAPK1 mRNA level (MAPK1)	BDNF mRNA level (BDNF)	inhibition of HIV-1 virus in vitro [2]	therapeutic index (IC50:cytotoxicity ratio) as compared to curcumin [2]	IC50 [3] [nM]
COc1cc(/C=C/C(=O)/C=C/c2ccc(O)c(OC)c2)ccc1O [curcumin analog, (1E,4E)-1,5-bis(4-hydroxy-3-methoxyphenyl)penta-1,4-dien-3-one]	significantly increased	very lipophilic	significantly increased	significantly increased	able to inhibit HIV at the nanomolar level	wider therapeutic index	8
COc1cc(/C=C/C(=O)CC(=O)/C=C/c2ccc(O)c(OC)c2)ccc1O [Natural curcumin, Curcumin]	slight increase	–	slight increase	decrease	–	–	–

From patent publication US11319273B2, “Lipophilic curcumin analogs and methods of inhibiting HIV-1, treating latent HIV in the brain, and preventing HIV-mediated cognitive decline and HIV dementia” (Howard University, priority 2012, dated 2022)
